# Reference: ChEMBL document CHEMBL1201861, “Genomics of Drug Sensitity in Cancer screening data, Wellcome Trust Sanger Institute”
# pIC50: −log10 of the molar value.
# What was measured:
# Assay in all cases: cells
# UACC-62 = assay type: functional, cell-based; conditions: Homo sapiens;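 note: growth inhibition of human UACC-62 cells, read out by a cell viability assay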
# Description: SANGER: Inhibition of human UACC-62 cell growth in a cell viability assay.
# AGS = assay type: functional, cell-based; conditions: Homo sapiens;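 note: growth inhibition of AGS cells, determined with a cell viability assay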
# Description: SANGER: Inhibition of human AGS cell growth in a cell viability assay.
# MeWo = assay type: functional, cell-based; conditions: Homo sapiens;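 note: growth inhibition of MeWo cells, determined by a cell viability readout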
# Description: SANGER: Inhibition of human Mewo cell growth in a cell viability assay.
# HSC-3 = assay type: functional, cell-based; conditions: Homo sapiens
# Description: SANGER: Inhibition of human HSC-3 cell growth in a cell viability assay.
# EW-22 = assay type: functional, cell-based; conditions: Homo sapiens;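 note: growth inhibition of the EW-22 cell line, measured with a cell viability readout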
# Description: SANGER: Inhibition of human EW-22 cell growth in a cell viability assay.
# MDA-MB-175-VII = assay type: functional, cell-based; conditions: Homo sapiens
# RT-112 = assay type: functional, cell-based; conditions: Homo sapiens
# Description: SANGER: Inhibition of human RT-112 cell growth in a cell viability assay.
# SW-620 = assay type: functional, cell-based; conditions: Homo sapiens;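 note: growth inhibition of human SW-620 cells, measured by a cell viability assay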
# Description: SANGER: Inhibition of human SW620 cell growth in a cell viability assay.
# RO82-W-1 = assay type: functional, cell-based; conditions: Homo sapiens;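 note: growth inhibition of human RO82-W-1 cells, measured with a cell viability assay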
# Description: SANGER: Inhibition of human RO82-W-1 cell growth in a cell viability assay.
# SW1417 = assay type: functional, cell-based; conditions: Homo sapiens;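 note: growth inhibition of human SW1417 cells, read out with a cell viability assay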
# Description: SANGER: Inhibition of human SW1417 cell growth in a cell viability assay.
# M059J = assay type: functional, cell-based; conditions: Homo sapiens;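 note: growth inhibition of M059J cells, read out with a cell viability assay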
# Description: SANGER: Inhibition of human M059J cell growth in a cell viability assay.
# MFH-ino = assay type: functional, cell-based, Homo sapiens; conditions: Homo sapiens, MFH-ino;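 note: growth inhibition of human MFH-ino cells, read out by a cell viability assay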
# Description: SANGER: Inhibition of human MFH-ino cell growth in a cell viability assay.
# CWR22R = assay type: functional, cell-based; conditions: Homo sapiens, 22Rv1;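 note: growth inhibition of 22Rv1 cells, read out with a cell viability assay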
# Description: SANGER: Inhibition of human 22RV1 cell growth in a cell viability assay.
# GMS-10 = assay type: functional, cell-based; conditions: Homo sapiens;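 note: growth inhibition of GMS-10 cells, read out as cell viability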
# Description: SANGER: Inhibition of human GMS-10 cell growth in a cell viability assay.
# SNU-423 = assay type: functional, cell-based; conditions: Homo sapiens
# Description: SANGER: Inhibition of human SNU-423 cell growth in a cell viability assay.
# Calu-3 = assay type: functional, cell-based; conditions: Homo sapiens;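 note: growth inhibition of human Calu-3 cells, determined with a cell viability assay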
# Description: SANGER: Inhibition of human Calu-3 cell growth in a cell viability assay.
# A2058 = assay type: functional, cell-based; conditions: Homo sapiens;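 note: reduction of A2058 cell growth, read out with a viability assay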
# Description: SANGER: Inhibition of human A2058 cell growth in a cell viability assay.
# P12-Ichikawa = assay type: functional, cell-based; conditions: Homo sapiens
# NCI-H1993 = assay type: functional, cell-based; conditions: Homo sapiens;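 note: growth inhibition of the cancer cell line, assessed with a cell viability assay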
# Description: SANGER: Inhibition of human NCI-H1993 cell growth in a cell viability assay.
# T-24 = assay type: functional, cell-based; conditions: Homo sapiens;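 note: growth inhibition of T-24 cells, read out with a cell viability assay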
# Description: SANGER: Inhibition of human T-24 cell growth in a cell viability assay.
# HT1197 = assay type: functional, cell-based, HT-1197; conditions: Homo sapiens
# Description: SANGER: Inhibition of human HT-1197 cell growth in a cell viability assay.
# SN12C = assay type: functional, cell-based; conditions: Homo sapiens;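 note: growth inhibition of human SN12C cells, measured by a cell viability assay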
# Description: SANGER: Inhibition of human SN12C cell growth in a cell viability assay.
# MDA-MB-361 = assay type: functional, cell-based; conditions: Homo sapiens
# TYK-nu = assay type: functional, cell-based; conditions: Homo sapiens;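 note: growth inhibition of human TYK-nu cells, read out by a cell viability assay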
# Description: SANGER: Inhibition of human TYK-nu cell growth in a cell viability assay.
# SK-OV-3 = assay type: functional, cell-based; conditions: Homo sapiens;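 note: growth inhibition of SK-OV-3 human cells, read out with a cell viability assay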
# Description: SANGER: Inhibition of human SK-OV-3 cell growth in a cell viability assay.
# BT-20 = assay type: functional, cell-based; conditions: Homo sapiens;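 note: cell viability assay measuring suppression of growth in human BT-20 cells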
# Description: SANGER: Inhibition of human BT-20 cell growth in a cell viability assay.
# NCI-H1693 = assay type: functional, cell-based; conditions: Homo sapiens;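 note: growth inhibition of the human cell line, read out with a cell viability assay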
# Description: SANGER: Inhibition of human NCI-H1693 cell growth in a cell viability assay.
# DMS-79 = assay type: functional, cell-based, Homo sapiens; conditions: Homo sapiens, DMS-79;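 note: growth inhibition measured with a cell viability assay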
# Description: SANGER: Inhibition of human DMS-79 cell growth in a cell viability assay.
# BHY = assay type: functional, cell-based; conditions: Homo sapiens;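 note: cell growth inhibition read out by a viability assay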
# Description: SANGER: Inhibition of human BHY cell growth in a cell viability assay.
# Capan-2 = assay type: functional, cell-based; conditions: Homo sapiens;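 note: Capan-2 cell growth inhibition, read out with a viability assay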
# Description: SANGER: Inhibition of human Capan-2 cell growth in a cell viability assay.
# LN-405 = assay type: functional, cell-based; conditions: Homo sapiens
# Description: SANGER: Inhibition of human LN-405 cell growth in a cell viability assay.
# G-401 = assay type: functional, cell-based; conditions: Homo sapiens
# Description: SANGER: Inhibition of human G-401 cell growth in a cell viability assay.
# HSC-4 = assay type: functional, cell-based; conditions: Homo sapiens;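 note: growth inhibition of human HSC-4 cells, read out with a cell viability assay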
# Description: SANGER: Inhibition of human HSC-4 cell growth in a cell viability assay.
# SW780 = assay type: functional, cell-based; conditions: Homo sapiens;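 note: growth inhibition of the cells, read out with a cell viability assay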
# Description: SANGER: Inhibition of human SW780 cell growth in a cell viability assay.
# SJRH30 = assay type: functional, cell-based; conditions: Homo sapiens;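 note: growth inhibition of human SJRH30 cells, read out with a cell viability assay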
# Description: SANGER: Inhibition of human SJRH30 cell growth in a cell viability assay.
# Hs-578T = assay type: functional, cell-based; conditions: Homo sapiens
# Description: SANGER: Inhibition of human Hs-578-T cell growth in a cell viability assay.
# KYSE-410 = assay type: functional, cell-based; conditions: Homo sapiens;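 note: growth inhibition of KYSE-410 cells, measured through a cell viability readout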
# Description: SANGER: Inhibition of human KYSE-410 cell growth in a cell viability assay.
# EFO-21 = assay type: functional, cell-based; conditions: Homo sapiens;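 note: growth inhibition of EFO-21 cells measured with a viability assay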
# Description: SANGER: Inhibition of human EFO-21 cell growth in a cell viability assay.
# MEL-HO = assay type: functional, cell-based; conditions: Homo sapiens
# Description: SANGER: Inhibition of human MEL-HO cell growth in a cell viability assay.
# MIA PaCa-2 = assay type: functional, cell-based; conditions: Homo sapiens;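 note: growth inhibition of MIA PaCa-2 cells, read out with a cell viability assay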
# Description: SANGER: Inhibition of human MIA-PaCa-2 cell growth in a cell viability assay.
# HEC-1 = assay type: functional, cell-based; conditions: Homo sapiens;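 note: growth inhibition of the cell line, read out with a cell viability assay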
# Description: SANGER: Inhibition of human HEC-1 cell growth in a cell viability assay.
# OAW-28 = assay type: functional, cell-based; conditions: Homo sapiens;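 note: growth inhibition of OAW-28 cells, read out with a cell viability assay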
# Description: SANGER: Inhibition of human OAW-28 cell growth in a cell viability assay.
# CAL-72 = assay type: functional, cell-based; conditions: Homo sapiens;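 note: cell viability assay measuring inhibition of proliferation in the CAL-72 cell line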
# Description: SANGER: Inhibition of human CAL-72 cell growth in a cell viability assay.
# HT-3 = assay type: functional, cell-based; conditions: Homo sapiens;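 note: growth inhibition measured with a cell viability readout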
# Description: SANGER: Inhibition of human HT-3 cell growth in a cell viability assay.
# CAKI-1 = assay type: functional, cell-based; conditions: Homo sapiens;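 note: growth inhibition of CAKI-1 cells, measured by a cell viability assay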
# Description: SANGER: Inhibition of human CAKI-1 cell growth in a cell viability assay.
# A204 = assay type: functional, cell-based; conditions: Homo sapiens;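 note: growth inhibition of human A204 cells, read out with a cell viability assay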
# Description: SANGER: Inhibition of human A204 cell growth in a cell viability assay.
structure (smiles),measurement,setting,value
CC1=C(/C=C/C(C)=C/C=C/C(C)=C/C(=O)O)C(C)(C)CCC1 [TRETINOIN],pIC50,UACC-62,< 5.00
same,pIC50,AGS,< 5.00
same,pIC50,MeWo,< 5.00
same,pIC50,HSC-3,< 5.00
same,pIC50,EW-22,< 5.00
same,pIC50,MDA-MB-175-VII,< 5.00
same,pIC50,RT-112,< 5.00
same,pIC50,SW-620,< 5.00
same,pIC50,RO82-W-1,< 5.00
same,pIC50,SW1417,< 5.00
same,pIC50,M059J,< 5.00
same,pIC50,MFH-ino,< 5.00
same,pIC50,CWR22R,< 5.00
same,pIC50,GMS-10,< 5.00
same,pIC50,SNU-423,< 5.00
same,pIC50,Calu-3,< 5.00
same,pIC50,A2058,< 5.00
same,pIC50,P12-Ichikawa,< 5.00
same,pIC50,NCI-H1993,< 5.00
same,pIC50,T-24,< 5.00
same,pIC50,HT1197,< 5.00
same,pIC50,SN12C,< 5.00
same,pIC50,MDA-MB-361,< 5.00
same,pIC50,TYK-nu,< 5.00
same,pIC50,SK-OV-3,< 5.00
same,pIC50,BT-20,< 5.00
same,pIC50,NCI-H1693,< 5.00
same,pIC50,DMS-79,< 5.00
same,pIC50,BHY,< 5.00
same,pIC50,Capan-2,< 5.00
same,pIC50,LN-405,< 5.00
same,pIC50,G-401,< 5.00
same,pIC50,HSC-4,< 5.00
same,pIC50,SW780,< 5.00
same,pIC50,SJRH30,< 5.00
same,pIC50,Hs-578T,< 5.00
same,pIC50,KYSE-410,< 5.00
same,pIC50,EFO-21,< 5.00
same,pIC50,MEL-HO,< 5.00
same,pIC50,MIA PaCa-2,< 5.00
same,pIC50,HEC-1,< 5.00
same,pIC50,OAW-28,< 5.00
same,pIC50,CAL-72,< 5.00
same,pIC50,HT-3,< 5.00
same,pIC50,CAKI-1,< 5.00
same,pIC50,A204,< 5.00
NC(=O)c1ccc(N(C(N)=O)c2c(F)cccc2F)nc1-c1ccc(F)cc1F [VX-702],pIC50,UACC-62,< 5.70
same,pIC50,AGS,6.82
same,pIC50,MeWo,< 5.70
same,pIC50,HSC-3,< 5.70
same,pIC50,EW-22,< 5.70
same,pIC50,MDA-MB-175-VII,< 5.70
same,pIC50,RT-112,< 5.70
same,pIC50,SW-620,< 5.70
same,pIC50,RO82-W-1,< 5.70
same,pIC50,SW1417,< 5.70
same,pIC50,M059J,< 5.70
same,pIC50,MFH-ino,< 5.70
same,pIC50,CWR22R,< 5.70
same,pIC50,GMS-10,< 5.70
same,pIC50,SNU-423,< 5.70
same,pIC50,Calu-3,< 5.70
same,pIC50,A2058,< 5.70
same,pIC50,P12-Ichikawa,< 5.70
same,pIC50,NCI-H1993,< 5.70
same,pIC50,T-24,< 5.70
same,pIC50,HT1197,< 5.70
same,pIC50,SN12C,< 5.70
same,pIC50,MDA-MB-361,< 5.70
same,pIC50,TYK-nu,< 5.70
same,pIC50,SK-OV-3,< 5.70
same,pIC50,BT-20,< 5.70
same,pIC50,NCI-H1693,< 5.70
same,pIC50,DMS-79,< 5.70
same,pIC50,BHY,< 5.70
same,pIC50,Capan-2,< 5.70
same,pIC50,LN-405,< 5.70
same,pIC50,G-401,< 5.70
same,pIC50,HSC-4,< 5.70
same,pIC50,SW780,< 5.70
same,pIC50,SJRH30,< 5.70
same,pIC50,Hs-578T,< 5.70
same,pIC50,KYSE-410,< 5.70
same,pIC50,EFO-21,< 5.70
same,pIC50,MEL-HO,< 5.70
same,pIC50,MIA PaCa-2,< 5.70
same,pIC50,HEC-1,< 5.70
same,pIC50,OAW-28,< 5.70
same,pIC50,CAL-72,< 5.70
same,pIC50,HT-3,< 5.70
same,pIC50,CAKI-1,< 5.70
same,pIC50,A204,< 5.70
